Series [1] can be described thus: DPPH radical scavenging activity. Here is the method: The DPPH assay is used conventionally to quantify a compound’s ability to trap free radicals.
The compounds were evaluated for their ability to scavenge stable DPPH radicals, using a modification of the method by Turkoglu et al..

A short description of series [2]: Ferric reducing antioxidant power (FRAP). Here is the method: FRAP is a ferric (Fe^3+) to ferrous (Fe^2+) ions reduction assay that measures a compound’s electron-donating capacity, i.e., the antioxidant’s reducing power.
The mixture was incubated at 50 °C for 20 min, followed by acidification with 100 μL trichloroacetic acid (10%). After centrifugation at 3500 rpm for 10 min, 200 μL of the supernatant was transferred into another test tube containing 200 μL of distilled water and 0.8 mL of FeCl3 (0.1%). Finally, the absorbance was read at 700 nm, and the total reductive antioxidant power was calculated thus: Ferric reducing antioxidant power (%)=Absorbance of compound/Absorbance of 500µM gallic acid×100

Another series concerns the target T1, α-glucosidase (Saccharomyces cerevisiae, UniProt P38158).
T1 construct: purchased Merck
Nature of the series: biochemical. Here is the method: The α-glucosidase inhibitory activity was evaluated using a previous method with slight modifications.

For series [3], the target named is T2, porcine pancreatic amylase (Sus scrofa, UniProt P00690).
T2 construct: purchased Merck
T2 sequence (P00690 16-511): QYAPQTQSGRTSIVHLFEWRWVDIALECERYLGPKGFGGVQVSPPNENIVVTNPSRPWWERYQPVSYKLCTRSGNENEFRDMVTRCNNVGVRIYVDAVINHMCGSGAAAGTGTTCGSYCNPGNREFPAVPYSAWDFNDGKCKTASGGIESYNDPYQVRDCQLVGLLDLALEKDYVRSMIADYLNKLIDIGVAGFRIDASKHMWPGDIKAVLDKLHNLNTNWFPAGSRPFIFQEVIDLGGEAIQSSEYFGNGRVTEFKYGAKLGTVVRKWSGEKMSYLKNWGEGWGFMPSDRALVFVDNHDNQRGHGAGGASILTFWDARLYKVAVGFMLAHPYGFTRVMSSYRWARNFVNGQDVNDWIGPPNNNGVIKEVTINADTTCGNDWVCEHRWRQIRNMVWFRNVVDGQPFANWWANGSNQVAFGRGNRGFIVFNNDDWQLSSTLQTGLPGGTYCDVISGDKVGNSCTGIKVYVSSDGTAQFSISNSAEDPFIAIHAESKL
The series can be described thus: α-Amylase inhibitory activity (starch/DNS). It counts as biochemical. Here is the method: α-Amylase inhibitory activity was determined according to Ibitoye et al. with slight modifications. […] The reaction in the mixture was terminated with a 1 mL dinitrosalicylate reagent before boiling for 10 min. The cooled mixture was diluted with 5 mL distilled water, and the absorbance was read at 540 nm. The inhibitory activity was calculated using the formula below: % Inhibition=1−Absorbance of compound/Absorbance of control×100

Series [4] can be described thus: Nitric oxide (NO) scavenging activity. The procedure:
The screening of the present compound series for NO radical scavenging activity (Table 2) identified excellent NO scavengers.
The antioxidant capacity of the compounds to scavenge nitric oxide radicals was determined using a modified version of the protocol by Kurian et al.. Briefly, 250 μL of sodium nitroprusside (10 mM) prepared in sodium phosphate buffer (pH 7.4) was added to 500 μL of the compound solution (62.5–500 μM) or distilled water (control). The resulting solution was incubated at 37 °C for 2 h. Then, 250 μL of Griess reagent was added to the reaction mixture before the absorbance was measured at 546 nm. The nitric oxide scavenging activity of the compounds was calculated with the formula: Nitric oxide scavenging (%)=1−Absorbance of compound/Absorbance of control×100

Setting [5] is: DPPH radical scavenging, 30 min, 25 °C.
The mark [6] stands for this setting: ferric reducing antioxidant power.
Where [7] appears, read: pNPG substrate, pH 6.8, 37 °C, read-out: IC50 α-Glucosidase.
[8] abbreviates: porcine pancreatic amylase, starch, pH 6.9, 25 °C, read-out: IC50 α-Amylase.
Where [9] appears, read: nitric oxide radical scavenging, 37 °C, 2 h.

Read-outs that look alike come from different tables or passages of the source. Some results are limits rather than exact numbers.

T1 sequence (P38158 whole entry): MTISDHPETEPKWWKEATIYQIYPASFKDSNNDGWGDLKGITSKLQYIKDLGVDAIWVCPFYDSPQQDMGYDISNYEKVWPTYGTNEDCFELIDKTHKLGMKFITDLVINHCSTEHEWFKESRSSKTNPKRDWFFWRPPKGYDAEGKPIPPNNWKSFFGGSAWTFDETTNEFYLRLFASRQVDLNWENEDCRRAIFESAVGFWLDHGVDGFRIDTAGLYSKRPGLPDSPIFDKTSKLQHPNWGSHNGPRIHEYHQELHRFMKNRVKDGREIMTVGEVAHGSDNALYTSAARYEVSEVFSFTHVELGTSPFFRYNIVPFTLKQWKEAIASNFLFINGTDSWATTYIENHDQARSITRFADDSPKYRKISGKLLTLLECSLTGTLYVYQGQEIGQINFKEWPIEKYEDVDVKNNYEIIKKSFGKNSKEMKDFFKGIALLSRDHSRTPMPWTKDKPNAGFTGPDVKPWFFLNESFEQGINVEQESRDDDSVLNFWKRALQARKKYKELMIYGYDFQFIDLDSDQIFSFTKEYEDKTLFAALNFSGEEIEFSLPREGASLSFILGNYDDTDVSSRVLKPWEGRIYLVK

For orientation: IC50 means the concentration that gives 50% inhibition. For orientation: melting point means the temperature, or range, at which the solid turns liquid. Compound `CCSc1nnc(COc2cccc3cccnc23)o1` [4a, 2-(Ethylthio)-5-[(quinolin-8-yloxy)methyl]-1,3,4-oxadiazole] came in with a melting point of 80.7 to 83.1 °C. The IC50 in series [1] (setting [5]) came out at 70.9 µM. For the same compound, the IC50 in series [2] (setting [6]) is greater than 500 µM. Besides, the IC50 on α-glucosidase (setting [7]) amounted to 41.6 µM. Further, the IC50 in series [3] (setting [8]) was greater than 500 µM. Also, the IC50 in series [4] (setting [9]) worked out at 2.67 µM.
`CCCCSc1nnc(COc2cccc3cccnc23)o1` [4c, 2-(Butylthio)-5-[(quinolin-8-yloxy)methyl]-1,3,4-oxadiazole] returned a melting point of 88.3 to 93.5 °C. The compound also yielded an IC50 in series [1] (setting [5]) of 79 µM. Also, in series [2] (setting [6]), the IC50 is greater than 500 µM. For the same compound, the IC50 on α-glucosidase (setting [7]) came out at 41.4 µM. Besides, in series [3] (setting [8]), the IC50 was greater than 500 µM. The compound further had a half-inhibitory concentration (IC50) in series [4] (setting [9]) greater than 500 µM.
Compound `CCCCCSc1nnc(COc2cccc3cccnc23)o1` [4d, 2-(Pentylthio)-5-[(quinolin-8-yloxy)methyl]-1,3,4-oxadiazole] displayed a melting point of 84.6 to 90.1 °C. This compound also showed a 50% inhibitory concentration (IC50) in series [1] (setting [5]) of 82.9 µM. This compound had a concentration for half-maximal inhibition (IC50) in series [2] (setting [6]) greater than 500 µM. Also, the IC50 at α-glucosidase (setting [7]) was determined as 46.7 µM. In addition, the IC50 in series [3] (setting [8]) was greater than 500 µM. This compound also registered an IC50 in series [4] (setting [9]) of 457 µM.
With `CCCCCCSc1nnc(COc2cccc3cccnc23)o1` [4e, 2-(Hexylthio)-5-[(quinolin-8-yloxy)methyl]-1,3,4-oxadiazole], the IC50 in series [1] (setting [5]) is 75.7 µM; in series [2] (setting [6]) it was greater than 500 µM; on α-glucosidase (setting [7]) it was 48.1 µM; in series [3] (setting [8]) it was 210 µM; in series [4] (setting [9]), greater than 500 µM.
Turning to `C=CCSc1nnc(COc2cccc3cccnc23)o1` [4f, 2-(Allylthio)-5-[(quinolin-8-yloxy)methyl]-1,3,4-oxadiazole], the IC50 in series [1] (setting [5]) was 72.1 µM; in series [2] (setting [6]), greater than 500 µM; at α-glucosidase (setting [7]), 34.5 µM; in series [3] (setting [8]), greater than 500 µM; in series [4] (setting [9]) it was greater than 500 µM.
For `CC(C)=CCSc1nnc(COc2cccc3cccnc23)o1` [4g, 2-[(3-Methylbut-2-en-1-yl)thio]-5-[(quinolin-8-yloxy)methyl]-1,3,4-oxadiazole], the IC50 is 86.4 µM in series [1] (setting [5]); greater than 500 µM in series [2] (setting [6]); 34.1 µM on α-glucosidase (setting [7]); greater than 500 µM in series [3] (setting [8]); greater than 500 µM in series [4] (setting [9]).
In the case of `BrCCSc1nnc(COc2cccc3cccnc23)o1` [4h, 2-[(2-Bromoethyl)thio]-5-[(quinolin-8-yloxy)methyl]-1,3,4-oxadiazole], the half-maximal inhibitory concentration (IC50) in series [1] (setting [5]) was 75.4 µM; in series [2] (setting [6]) it was greater than 500 µM; in series [4] (setting [9]), greater than 500 µM.
Compound `Brc1ccc(CSc2nnc(COc3cccc4cccnc34)o2)cc1` [4m, 2-[(4-Bromobenzyl)thio]-5-[(quinolin-8-yloxy)methyl]-1,3,4-oxadiazole] registered a melting point of 120.9 to 124.1 °C. Moreover, the IC50 in series [1] (setting [5]) was 85.2 µM. In series [2] (setting [6]), this compound had a 50% inhibitory concentration (IC50) greater than 500 µM. The compound also gave an IC50 on α-glucosidase of 28.3 µM. In series [3] (setting [8]), the IC50 was greater than 500 µM. In series [4] (setting [9]), this compound yielded a 50% inhibitory concentration (IC50) greater than 500 µM.
Turning to `O=[N+]([O-])c1ccc(CSc2nnc(COc3cccc4cccnc34)o2)cc1` [4n, 2-[(4-Nitrobenzyl)thio]-5-[(quinolin-8-yloxy)methyl]-1,3,4-oxadiazole], the melting point is 156.6 to 160.1 °C. The IC50 in series [1] (setting [5]) was found to be 77.2 µM. Besides, the IC50 in series [2] (setting [6]) was greater than 500 µM. Also, the IC50 on α-glucosidase (setting [7]) came out at 32.8 µM. Also, the IC50 in series [3] (setting [8]) is greater than 500 µM. Also, in series [4] (setting [9]), the half-inhibitory concentration (IC50) is greater than 500 µM.
Regarding `Fc1cccc(CSc2nnc(COc3cccc4cccnc34)o2)c1` [4o, 2-[(3-Fluorobenzyl)thio]-5-[(quinolin-8-yloxy)methyl]-1,3,4-oxadiazole], the half-maximal inhibitory concentration (IC50) was 76.9 µM in series [1] (setting [5]); greater than 500 µM in series [2] (setting [6]); 48.8 µM on α-glucosidase (setting [7]); greater than 500 µM in series [3] (setting [8]); greater than 500 µM in series [4] (setting [9]).
Take `Clc1cccc(CSc2nnc(COc3cccc4cccnc34)o2)c1` [4p, 2-[(3-Chlorobenzyl)thio]-5-[(quinolin-8-yloxy)methyl]-1,3,4-oxadiazole]: the IC50 in series [1] (setting [5]) is 68 µM; in series [2] (setting [6]) it was greater than 500 µM; on α-glucosidase (setting [7]), 29.6 µM; in series [3] (setting [8]), greater than 500 µM; in series [4] (setting [9]) it was greater than 500 µM.
For `Brc1cccc(CSc2nnc(COc3cccc4cccnc34)o2)c1` [4q, 2-[(3-Bromobenzyl)thio]-5-[(quinolin-8-yloxy)methyl]-1,3,4-oxadiazole], the IC50 in series [1] (setting [5]) was 78.6 µM; in series [2] (setting [6]), greater than 500 µM; at α-glucosidase (setting [7]), 29.6 µM; in series [3] (setting [8]), 427 µM; in series [4] (setting [9]), greater than 500 µM.
As to `Fc1ccc(CSc2nnc(COc3cccc4cccnc34)o2)c(F)c1` [4r, 2-[(2,4-Difluorobenzyl)thio]-5-[(quinolin-8-yloxy)methyl]-1,3,4-oxadiazole], the melting point lay within 98.7 to 105.2 °C. The same compound came in with an IC50 in series [1] (setting [5]) of 64.5 µM. Further, the IC50 in series [2] (setting [6]) was greater than 500 µM. The IC50 at α-glucosidase (setting [7]) came to 28.2 µM. For the same compound, in series [3] (setting [8]), the IC50 is greater than 500 µM. Moreover, the 50% inhibitory concentration (IC50) in series [4] (setting [9]) was greater than 500 µM.
`Fc1ccc(CSc2nnc(COc3cccc4cccnc34)o2)cc1F` [4s, 2-[(3,4-Difluorobenzyl)thio]-5-[(quinolin-8-yloxy)methyl]-1,3,4-oxadiazole] registered a melting point of 98.8 to 101.2 °C. In series [1] (setting [5]), this compound gave an IC50 of 87.2 µM. In addition, in series [2] (setting [6]), the IC50 was greater than 500 µM. Further, the IC50 on α-glucosidase (setting [7]) was determined as 35.4 µM. Also, the IC50 in series [3] (setting [8]) was greater than 500 µM. The IC50 in series [4] (setting [9]) is greater than 500 µM.
Regarding `Clc1ccc(CSc2nnc(COc3cccc4cccnc34)o2)c(Cl)c1` [4t, 2-[(2,4-Dichlorobenzyl)thio]-5-[(quinolin-8-yloxy)methyl]-1,3,4-oxadiazole], the melting point was in the range of 116.7 to 119.7 °C. Moreover, in series [1] (setting [5]), the IC50 came to 94 µM. For the same compound, the IC50 in series [2] (setting [6]) is greater than 500 µM. Besides, the IC50 at α-glucosidase (setting [7]) turned out to be 27.7 µM. Besides, the IC50 in series [3] (setting [8]) was greater than 500 µM. In addition, in series [4] (setting [9]), the IC50 was greater than 500 µM.
As to `Oc1cccc2cccnc12` [8-HQ, 8-hydroxyquinoline, reference compound], the IC50 in series [1] was 51.8 µM; in series [2] it was greater than 500 µM; against α-glucosidase it was 29.3 µM; in series [3], greater than 500 µM; in series [4], 184 µM.
Regarding `CCCCCCn1cc(CSc2nnc(COc3cccc4cccnc34)o2)nn1` [12b, 2-{[(1-Hexyl-1H-1,2,3-triazol-4-yl)methyl]thio}-5-[(quinolin-8-yloxy)methyl]-1,3,4-oxadiazole], the IC50 in series [1] (setting [5]) was 80 µM; in series [2] (setting [6]), greater than 500 µM; on α-glucosidase (setting [7]) it was 36.7 µM; in series [3] (setting [8]), greater than 500 µM; in series [4] (setting [9]) it was greater than 500 µM.
With `Fc1ccc(Cn2cc(CSc3nnc(COc4cccc5cccnc45)o3)nn2)cc1F` [12j, 2-{[(1-(3,4-Difluorobenzyl)-1H-1,2,3-triazol-4-yl)methyl]thio}-5-[(quinolin-8-yloxy)methyl]-1,3,4-oxadiazole], the half-maximal inhibitory concentration (IC50) is 102 µM in series [1] (setting [5]); greater than 500 µM in series [2] (setting [6]); 59 µM at α-glucosidase (setting [7]); greater than 500 µM in series [3] (setting [8]); greater than 500 µM in series [4] (setting [9]).
Consider `O=C1O[C@H]([C@@H](O)CO)C(O)=C1O` [Ascorbic acid, reference compound], for which the IC50 in series [2] (setting [6]) was determined as 103 µM.
With `O=C(O)c1cc(O)c(O)c(O)c1` [Gallic acid, reference compound], the 50% inhibitory concentration (IC50) came to 26.6 µM in series [1] (setting [5]), 17.9 µM in series [2] (setting [6]) and 729 µM in series [4] (setting [9]).
As to `Sc1nnc(COc2cccc3cccnc23)o1` [compound 3, 5-[(Quinolin-8-yloxy)methyl]-1,3,4-oxadiazole-2-thiol], the IC50 in series [1] (setting [5]) is 25.2 µM; in series [2] (setting [6]), greater than 500 µM; at α-glucosidase (setting [7]) it was 34.7 µM; in series [3] (setting [8]), greater than 500 µM; in series [4] (setting [9]), 464 µM.
